Here are results for 17 molecules from patent publication US7262185B2, “Benzazepine derivative, process for producing the same, and use” (Takeda Chemical Industries Ltd., priority 2001, dated 2007).

One test deals with T1, human CCR5 chemokine receptor (Homo sapiens, UniProt P51681).
T1 construct: expressed in transfected cells
T1 sequence (P51681 whole entry): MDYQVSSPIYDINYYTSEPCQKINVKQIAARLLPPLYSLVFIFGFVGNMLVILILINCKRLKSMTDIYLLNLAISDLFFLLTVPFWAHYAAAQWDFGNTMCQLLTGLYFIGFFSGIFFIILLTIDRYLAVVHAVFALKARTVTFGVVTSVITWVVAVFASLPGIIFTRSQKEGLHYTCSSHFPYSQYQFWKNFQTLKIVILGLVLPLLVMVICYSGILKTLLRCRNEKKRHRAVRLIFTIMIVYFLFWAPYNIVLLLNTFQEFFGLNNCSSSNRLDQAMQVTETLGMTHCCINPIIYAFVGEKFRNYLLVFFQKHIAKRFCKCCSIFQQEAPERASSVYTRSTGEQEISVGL
The experiment in a line: Inhibition of [125I]-RANTES binding to CCR5/CHO cells (CCR5 antagonistic activity). The following applies: 40 min, test compound 1 μM, [125I]-RANTES as ligand, room temperature, read-out: Binding Inhibitory Ratio (%). The protocol:
Cloning of CCR5 gene from human spleen cDNA was conducted using the PCR method. Using spleen cDNA (0.5 ng) (TOYOBO CO., LTD, QUICK-Clone cDNA) as a template, PCR was performed in a DNA Thermal Cycler 480 (manufactured by Perkin Elmer) (reaction conditions: 30 cycles of 95° C. for 1 minute, 60° C. for 1 minute, and 75° C. for 5 minutes) by adding primer sets, SEQ. ID NO: 1 (sequence length: 34; sequence type: nucleic acid; chain number: single strand; topology: linear; kind of sequence: other nucleic acid synthetic. DNA) described in Experimental. Example (1) of WO 99/32100, and SEQ ID NO: 2 (sequence length: 34; sequence type: nucleic acid; chain number: single strand; topology: linear; kind of sequence: other nucleic acid synthetic. DNA) described in Experimental. Example (1) of WO 99/32100, (25 pmol, respectively), which were prepared referring to the nucleotide sequence of CCR5 gene, as reported by Samson et al. (Biochemistry 35 (11), 3362-3367 (1996)) and by using TaKaRa. EX Taq (Takara Shuzo). The resultant. PCR product was subjected to agarose gel electrophoresis to collect an approximately 1.0 kb. DNA fragment, which was subjected to an Original TA Cloning Kit (Funakoshi Co., Ltd.) to carry out cloning of CCR5 gene.
The plasmid obtained above was digested with restriction enzymes XbaI (Takara Shuzo Co., Ltd.) and BamHI (Takara Shuzo Co., Ltd.), and then subjected to agarose gel electrophoresis to collect DNA fragment of about 1.0 kb. The DNA fragment and plasmid pcDNA 3.1 (Funakoshi. Co., Ltd.) for expression in animal cells, which was previously digested with XbaI and BamHI, were mixed and ligated by DNA Ligation Kit Ver. 2 (Takara Shuzo Co., Ltd.). The resulting plasmid was subjected to transformation into. E. coli JM109 competent cells (Takara Shuzo Co., Ltd.) to obtain plasmid pCKR5.
CHO-K1 cells were cultured in a 750-ml tissue culture flask (Becton, Dickinson and Company.) using. Ham F12 medium (NIHON PHARMACEUTICAL CO., LTD.) containing 10% fetal bovine serum (Lifetech Oriental) and were collected using 0.5 g/L trypsin-0.2 g/L EDTA (Lifetech Oriental). The cells were washed with PBS (Lifetech Oriental), centrifuged (1000 rpm, 5 minutes), and suspended in PBS. The DNA was introduced into the cells using a Gene Pulser (Bio-Rad Laboratories, Inc.) under the following conditions. Namely, 8×10^6 cells and 10 μg of plasmid pCKR5 for expression of human CCR5 were placed in a cuvette having a 0.4-cm gap, and electroporation was carried out with a voltage 0.25 kV and 960 μF of capacitance. Then, the cells were transferred into Ham's. F12 medium containing 10% fetal bovine serum, and incubated for 24 hours. The cells were collected, centrifuged, and suspended in Ham' F12 medium containing 10% fetal bovine serum and Geneticin (Lifetech Oriental) at a concentration of 500 μg/ml. The suspension of cells was diluted to a concentration of 10^4 cells/ml, and was inoculated onto 96-well plate (Becton Dickinson), to obtain Geneticin-resistant strain.
Then, resulting. Geneticin-resistant strain were cultured on 96-well plate (Becton Dickinson), and CCR5-expressing cells were selected from the resistant cells. Namely, in an assay buffer, (Ham's F12 medium containing 0.5% BSA, and 20 mM HEPES (Wako Pure Chemical Ind., pH 7.2)) to which was added […][125I]-RANTES (Amersham) as a ligand, the cells were subjected to a binding reaction at room temperature for 40 minutes. Wells containing the cells were washed with ice-cooled PBS, and 50 μl/well of 1M NaOH was added and stirred. The cells to which the ligand was bound specifically, i.e., CCR5/CHO cells, were selected by measurement of radioactivity using a […].
The CCR5/CHO cells were inoculated onto 96-well microplate at a concentration of 5×10^4 cells/well, and were cultured for 24 hours. After removal of the medium by aspiration, to each well was added an assay buffer containing a test compound (1 μM), and [125I]/RANTES (Amersham) used as a ligand at a concentration of […]. […]
In the case of `CCCCOCCOc1ccc(-c2ccc3c(c2)C=C(C(=O)Nc2ccc([S+]([O-])Cc4nccn4CCCC(N)=O)cc2)CCN3CC(C)C)cc1` (single isomer, unassigned; (-)) [Compound 418, (−)-N-[4-[[[1-(4-amino-4-oxobutyl)-1H-imidazol-2-yl]methyl]sulfinyl]phenyl]-7-[4-(2-butoxyethoxy)phenyl]-1-isobutyl-2,3-dihydro-1H-1-benzazepine-4-carboxamide], the inhibition at 1 µM amounted to 92%.
Consider `CCCCOCCOc1ccc(-c2ccc3c(c2)C=C(C(=O)Nc2ccc(C(O)c4cccc[n+]4[O-])c(C(F)(F)F)c2)CCN3CCC)cc1` (centres unmarked) [Compound 13, 7-[4-(2-butoxyethoxy)phenyl]-N-[4-[hydroxy(1-oxidopyridin-2-yl)methyl]-3-trifluoromethylphenyl]-1-propyl-2,3-dihydro-1H-1-benzazepine-4-carboxamide], for which the inhibition at 1 µM was found to be 100%.
Take `CCCCOCCOc1ccc(-c2ccc3c(c2)C=C(C(=O)Nc2ccc(OCc4nncn4CCC)cc2)CCN3CC(C)C)cc1` [Compound 26, 7-[4-(2-butoxyethoxy)phenyl]-1-isobutyl-N-[4-[(4-propyl-4H-1,2,4-triazol-3-yl)methoxy]phenyl]-2,3-dihydro-1H-1-benzazepine-4-carboxamide]: the inhibition at 1 µM is 97%.
Regarding `CCCCOCCOc1ccc(-c2ccc3c(c2)C=C(C(=O)Nc2ccc(SCc4nncn4CCC)nc2)CCN3CC(C)C)cc1` [Compound 53, 7-[4-(2-butoxyethoxy)phenyl]-1-isobutyl-N-[2-(4-propyl-4H-1,2,4-triazol-3-yl)methylthiopyridin-5-yl]-2,3-dihydro-1H-1-benzazepine-4-carboxamide], the inhibition at 1 µM stood at 98%.
Consider `CCCCOCCOc1ccc(-c2ccc3c(c2)C=C(C(=O)Nc2ccc([S+]([O-])CC4=NNCN4CCC)nn2)CCN3CC(C)C)cc1` (centres unmarked) [Compound 68, 7-[4-(2-butoxyethoxy)phenyl]-1-isobutyl-N-[6-[(4-propyl-1H-1,2,4-triazol-3-yl)methylsulfinyl]pyridazin-3-yl]-2,3-dihydro-1H-1-benzazepine-4-carboxamide], for which the inhibition at 1 µM amounted to 97%.
The same measure, in the same setting: as for `CCCCOCCOc1ccc(-c2ccc3c(c2)C=C(C(=O)Nc2ccc([S+]([O-])Cc4cncn4C4CC4)cc2)CCN3CC(C)C)cc1` (centres unmarked) [Compound 74, 7-[4-(2-butoxyethoxy)phenyl]-1-isobutyl-N-[4-[(3-cyclopropylimidazol-4-yl)methylsulfinyl]phenyl]-2,3-dihydro-1H-1-benzazepine-4-carboxamide], the figure is 97%; as for `CCCCOCCOc1ccc(-c2ccc3c(c2)C=C(C(=O)Nc2ccc([C@H](O)c4cccc[n+]4[O-])cc2)CCN3CC(C)C)cc1` [Compound 85, 7-[4-(2-butoxyethoxy)phenyl]-N-[4-[(S)-hydroxy(1-oxidopyridin-2-yl)methyl]phenyl]-1-isobutyl-2,3-dihydro-1H-1-benzazepine-4-carboxamide], 92%; as for `CCCCOCCOc1ccc(-c2ccc3c(c2)C=C(C(=O)Nc2ccc(CSc4nncn4C)cc2)CCN3CC(C)C)cc1` [Compound 117, 7-[4-(2-butoxyethoxy)phenyl]-N-[4-(4-methyl-4H-1,2,4-triazol-3-ylthiomethyl)phenyl]-1-isobutyl-2,3-dihydro-1H-1-benzazepine-4-carboxamide], 95%.
In the case of `CCCCOCCOc1ccc(-c2ccc3c(c2)C=C(C(=O)Nc2ccc(SCc4nncn4C)cc2)CCN3CC(C)C)cc1` [Compound 130, 7-[4-(2-butoxyethoxy)phenyl]-N-[4-(4-methyl-4H-1,2,4-triazol-3-ylmethylthio)phenyl]-1-isobutyl-2,3-dihydro-1H-1-benzazepine-4-carboxamide], the inhibition at 1 µM was 100%.
For `CCCCOCCOc1ccc(-c2ccc3c(c2)C=C(C(=O)Nc2ccc([S+]([O-])Cc4nncn4CCC)cc2)CCN3CCC)cc1` (centres unmarked) [Compound 141, 7-[4-(2-butoxyethoxy)phenyl]-1-propyl-N-[4-(4-propyl-4H-1,2,4-triazol-3-ylmethylsulfinyl)phenyl]-2,3-dihydro-1H-benzazepine-4-carboxamide], the inhibition at 1 µM is 100%.
`CCCCOCCOc1ccc(-c2ccc3c(c2)C=C(C(=O)Nc2ccc(CCc4nncn4CCC)cc2)CCN3CC(C)C)cc1` [Compound 152, 7-[4-(2-butoxyethoxy)phenyl]-1-isobutyl-N-[4-[2-(4-propyl-4H-1,2,4-triazol-3-yl)ethyl]phenyl]-2,3-dihydro-1H-benzazepine-4-carboxamide]: the inhibition at 1 µM amounted to 97%.
Turning to `CCCCOCCOc1ccc(-c2ccc3c(c2)C=C(C(=O)Nc2ccc(SCCn4cnnc4)cc2)CCN3CC(C)C)cc1` [Compound 154, 7-[4-(2-butoxyethoxy)phenyl]-N-[4-(4H-1,2,4-triazol-4-ylethylthio)phenyl]-1-isobutyl-2,3-dihydro-1H-benzazepine-4-carboxamide], the inhibition at 1 µM worked out at 100%.
As to `CCCCOCCOc1ccc(-c2ccc3c(c2)C=C(C(=O)Nc2ccc([S+]([O-])Cc4cccnc4)cc2)CCN3CC(C)C)cc1` (centres unmarked) [Compound 210, 7-[4-(2-butoxyethoxy)phenyl]-1-isobutyl-N-[4-[(3-pyridinylmethyl)sulfinyl]phenyl]-2,3-dihydro-1-benzazepine-4-carboxamide], the inhibition at 1 µM was 97%.
Turning to `CCCCOCCOc1ccc(-c2ccc3c(c2)C=C(C(=O)Nc2ccc([S+]([O-])Cc4nc(C)cc(C)n4)cc2)CCN3CC(C)C)cc1` (centres unmarked) [Compound 230, 7-[4-(2-butoxyethoxy)phenyl]-N-[4-[[(4,6-dimethyl-2-pyrimidinyl)methyl]sulfinyl]phenyl]-1-isobutyl-2,3-dihydro-1-benzazepine-4-carboxamide], the inhibition at 1 µM is 98%.
In the case of `CCCCOCCOc1ccc(-c2ccc3c(c2)C=C(C(=O)Nc2ccc([S+]([O-])Cc4cccnc4)c(OC)c2)CCN3CC(C)C)cc1` (centres unmarked) [Compound 240, 7-[4-(2-butoxyethoxy)phenyl]-1-isobutyl-N-[3-methoxy-4-[(3-pyridinylmethyl)sulfinyl]phenyl]-2,3-dihydro-1-benzazepine-4-carboxamide], the inhibition at 1 µM stood at 97%.

Staying with this test, now noted: test compound 1 μM, [125I]-RANTES as ligand, room temperature, 40 minutes.
`CCCCOCCOc1ccc(-c2ccc3c(c2)C=C(C(=O)Nc2ccc([S+]([O-])Cc4cncn4CCC)cc2)CCN3CC(C)C)cc1` (single isomer, unassigned; (-)) [Compound 373, (−)-7-[4-(2-butoxyethoxy)phenyl]-1-isobutyl-N-[4-[[[1-propylimidazol-5-yl]methyl]sulfinyl]phenyl]-2,3-dihydro-1-benzazepine-4-carboxamide]: the “Binding Inhibitory Ratio (%)” value turned out to be 94%.
On the same count and under the same terms, for `CCCCOCCOc1ccc(-c2ccc3c(c2)C=C(C(=O)Nc2ccc([S+]([O-])Cc4cncn4CCC)cc2)CCN3CCC)cc1` (single isomer, unassigned; (-)) [Compound 378, (−)-7-[4-(2-butoxyethoxy)phenyl]-1-propyl-N-[4-[[[1-propylimidazol-5-yl]methyl]sulfinyl]phenyl]-2,3-dihydro-1-benzazepine-4-carboxamide] the value was 87%.
